Measurements published in US20240216354A1, “IMMUNOMODULATORY IMIDE DRUGS AS ZETA-CHAIN-ASSOCIATED PROTEIN KINASE 70 (ZAP70) AGONISTS AND USES THEREOF” (Dana-Farber Cancer Institute, Inc., priority 2019, published 2024).

Columns and labels:
[1] = tested on: IKZF3; experiment: IKZF3 expression in KHYG-1 cells (immunoblotting); type: cell-based
Protocol: (§1) (A) KHYG-1 cells were transfected with CRBN, IKZF1, or IKZF3 siRNA. The transfectants were then cultured for 24 h with pomalidomide (0.5 μM). The arrow indicates CRBN. (B) KHYG-1 cells were cultured with pomalidomide for 24 h (0.5 μM), in the presence or absence of bortezomib (BTZ; 2.5 and 5 nM). (C, D) KHYG-1 cells were cultured for 24 h with lenalidomide, pomalidomide, or CC-220 (i.e., iberdomide) (0.01-1 μM). Whole cell lysates and RNAs were subjected to immunoblotting using indicated Abs (C) and real-time q-PCR (D), respectively.

[2] = tested on: granzyme-B (GZM-B); experiment: GZM-B expression in KHYG-1 cells (immunoblotting, real-time qPCR); type: cell-based
Protocol: (A) KHYG1 cells were cultured with pomalidomide (0.25-1 μM) for 24 h. (B) Isolated primary NK cells from healthy volunteers (#1, #2) were cultured with pomalidomide (0.3-1 μM) for 24 h. (C) KHYG-1 cells were transfected with Scsi or Zap-70si. After 48 h, cells were cultured for 24 h in the absence or presence (0.5 μM) of pomalidomide. Whole cell lysates and RNAs were subjected to immunoblotting using indicated Abs.
(A) KHYG-1 cells were transfected with Scsi or CRBNsi. After 48 h, cells were cultured in the absence or presence of pomalidomide (0.5 μM) for 24 h, and cell lysates immunoblotted with indicated Abs. (B) KHYG-1 cells were transfected with Scsi or Zap-70si, and then cultured for 72 h with pomalidomide (0.25 μM), in the absence of IL-2. Cells were counted and incubated with calcein AM-labeled U266 for 4 h at indicated effector/target (E/T) ratios.
as §1

[3] = molecular target: T1, Zap-70 (Homo sapiens, UniProt P43403); experiment: Immunoblotting of p-Zap-70, p-LAT and p-ERK in PBMCs; type: cell-based; design: endogenous in cells; host or cells: primary PBMCs, primary T cells and primary NK cells from healthy volunteers; settings: 16 h, Pom 0.01-1 μM, Len 1 μM
T1 sequence (P43403 1-619): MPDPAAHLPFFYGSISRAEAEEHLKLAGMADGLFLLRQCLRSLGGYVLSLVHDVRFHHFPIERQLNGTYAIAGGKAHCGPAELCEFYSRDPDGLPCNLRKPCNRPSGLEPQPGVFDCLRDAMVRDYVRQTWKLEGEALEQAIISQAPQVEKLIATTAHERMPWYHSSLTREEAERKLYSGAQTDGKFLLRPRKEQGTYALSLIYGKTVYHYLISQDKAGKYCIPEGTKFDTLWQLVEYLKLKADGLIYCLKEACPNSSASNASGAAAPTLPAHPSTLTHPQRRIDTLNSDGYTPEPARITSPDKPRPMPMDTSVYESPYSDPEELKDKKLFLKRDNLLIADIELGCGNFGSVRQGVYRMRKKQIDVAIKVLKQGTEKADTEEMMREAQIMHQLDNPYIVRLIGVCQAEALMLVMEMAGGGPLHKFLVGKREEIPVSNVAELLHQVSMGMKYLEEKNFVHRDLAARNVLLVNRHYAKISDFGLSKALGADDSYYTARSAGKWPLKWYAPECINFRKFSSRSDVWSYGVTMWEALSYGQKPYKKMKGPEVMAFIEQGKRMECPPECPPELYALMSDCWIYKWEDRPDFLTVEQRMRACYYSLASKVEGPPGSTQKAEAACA
Protocol: (A) PBMCs were cultured with pomalidomide (“Pom”) (0.01-1 μM) for 16 h. […] (B) PBMCs were cultured with pomalidomide (0.1 and 1 μM) for the indicated time periods. (C) PBMCs were cultured with lenalidomide (“Len”) (1 μM) for 16 h. (D) Primary T-cells from healthy volunteer were cultured with pomalidomide (0.25-1 μM) for 16 h. (E) Jurkat cells were cultured with pomalidomide (0.5 and 1 μM) for 16 h. Whole cell lysates were subjected to immunoblotting (A-E) using indicated Abs. (F) Jurkat cells were cultured with pomalidomide (0.01-1 μM) or lenalidomide (0.01-1 μM) for 72 h. Cell growth was assessed by MTT assay.
To characterize the effect of IMiDs on Zap-70 function in immune effector cells, pomalidomide triggered phosphorylation of Zap-70 was evaluated along with its known downstream target linker of activated T-cells (LAT) in PBMCs from healthy volunteers. […] Image J densitometric analysis confirmed 42% increased p-Zap-70 after pomalidomide (1 μM) treatment (FIG. 1A, lower panel). The increased p-Zap-70, p-LAT, as well as downstream p-ERK in PBMCs triggered by pomalidomide is also time-dependent (FIG. 1B). […] Since Zap-70 is a mediator of T-cell receptor signaling, whether IMiDs triggered p-Zap-70 in T cells from healthy volunteers was studied.

[4] = molecular target: T1, Zap-70; experiment: PathScan Phospho-Zap-70 (Tyr319) Sandwich ELISA in Jurkat cells; type: cell-based; settings: lenalidomide (1 and 3 μM) or pomalidomide (1 and 3 μM), 4 h and 8 h, Len<Pom
Protocol: (§2) (A) Jurkat cells were transfected with scrambled (Sc) siRNA or Zap-70 siRNA. Whole cell lysates were subjected to immunoblotting using indicated Abs. (B) Jurkat cells were treated with lenalidomide ([…]) or pomalidomide (1 and 3 μM) for 4 h and 8 h. Whole cell lysates were subjected to p-Zap ELISA assay. (C) Jurkat whole cell lysates were incubated with pomalidomide-beads in the presence or absence of competitor (1 mM free pomalidomide) for 1 h. After elution, samples were subjected to immunoblotting using anti-Zap-70 Ab. (D) Saturation-transfer difference resulting from the binding of pomalidomide to Zap-70. Pomalidomide is at 320 μM and Zap-70 is approximately 2 μM in deuterated PBS solution. […] (E) Saturation-transfer difference resulting from the binding of pomalidomide to Zap-70 in the presence of 2.56 mMATP. Pomalidomide is at 320 μM and Zap-70 is approximately 2 μM in deuterated PBS solution. […] Note that both ATP and pomalidomide show binding the Zap-70. (F) Non-cell based Zap-70 kinase assay was carried out, according to manufacturer's protocol.
Phosphorylation of Zap-70 was evaluated using PathScan Phospho-Zap-70 (Tyr319) Sandwich ELISA Kit (Cell Signaling Technology), according to manufacturer's protocol.

[5] = molecular target: T1, Zap-70; experiment: Saturation-transfer difference (STD) NMR binding to recombinant Zap-70; design: purchased Origene, Rockville, MD; settings: Pom 320 μM, Len 2.56 mM, ATP 2.56 mM, Zap-70 approximately 2 μM, deuterated PBS
Protocol: as §2
(A) Saturation-transfer difference resulting from the binding of lenalidomide to Zap-70, with lenalidomide (2.56 mM) and Zap-70 (2 μM) in deuterated PBS solution. […] (B) Saturation-transfer difference resulting from the binding of lenalidomide to Zap70 in the presence of 2.56 mM ATP, with lenalidomide (2.56 mM) and Zap-70 (2 μM) in deuterated PBS solution.
Commercial recombinant Zap-70 (Origene, Rockville, MD) was prepared by gel filtration buffer exchange into deuterated phosphate-buffered saline (PBS), which removed any components of the protein storage buffer, including glycerol. Len and Pom were made as d6-DMSO stock solutions and frozen in aliquots prior to use. ATP was stored frozen in aliquots at −20° C. in deuterated PBS. NMR samples were prepared in 5 mm SampleJet tubes to a final volume of 500 μl by adding 5-20 μl of the appropriate IMiD stock solution to the buffer-exchanged protein. The final concentration of protein in the NMR samples was approximately 2 μM. […]

[6] = molecular target: T1, Zap-70; experiment: Immunoblotting of p-Zap-70 in NK-92 cells; type: cell-based; settings: 24 h, Pom 0.5 and 1 μM, CC-220 0.01, 0.1, 1 μM
Protocol: (§3) (A) NK-92 cells were cultured with Pom (0.5 and 1 μM) for 24 h. Whole cell lysates were subjected to immunoblotting using indicated Abs. (B) NK-92 cells were cultured with Pom (0.5 and 1 μM) for 48 h. The cells were subsequently incubated with calcein-AM-stained U266 cells for 4 h at the indicated effector/target (E/T) ratios. Percent specific lysis was calculated as described previously. (C) NK-92 cells were cultured with Pom (0.03-3 μM) for 72 h. Cell growth was assessed by MTT assay. (D) NK-92 cells were transfected with scrambled (Sc) or Zap-70 siRNA (Zap70si). After 72 h incubation, cell viability was measured by trypan-blue dye exclusion. For B, C, and D, data are representative of at least two independent experiments, and values are expressed in mean±SD.
(§4) (A) NK-92 cells were cultured with Len (1 μM), Pom (0.01, 0.1, 1 μM) or CC-220 (0.01, 0.1, 1 μM) for 24 h. Whole cell lysates were subjected to immunoblotting using indicated Abs. (B) NK-92 cells were cultured with Pom (0.1 and 1 μM) or CC-220 ([…]) for 48 h. NK cell activity was measured by incubation with calcein AM-labeled U266 cells for 4 h at E/T ratio of 2.5/1. Percent specific lysis was calculated as previously described. Data are representative of three independent experiments, and values are expressed in mean±SD. *: p<0.01.

[7] = molecular target: CRBN (Homo sapiens, UniProt Q96SW2); settings: cited from earlier work
[8] = tested on: U266 cells; experiment: NK-92 NK cell activity against calcein-AM-stained U266 cells; type: cell-based; settings: NK-92 cells, 48 h; Pom 0.5 and 1 μM; CC-220 0.1 and 1 μM, E/T 2.5/1
Protocol: as §3, §4

[9] = pomalidomide 0.5 μM 24 h, BTZ 2.5 and 5 nM

CRBN, sequence (Q96SW2 whole entry, species assumed): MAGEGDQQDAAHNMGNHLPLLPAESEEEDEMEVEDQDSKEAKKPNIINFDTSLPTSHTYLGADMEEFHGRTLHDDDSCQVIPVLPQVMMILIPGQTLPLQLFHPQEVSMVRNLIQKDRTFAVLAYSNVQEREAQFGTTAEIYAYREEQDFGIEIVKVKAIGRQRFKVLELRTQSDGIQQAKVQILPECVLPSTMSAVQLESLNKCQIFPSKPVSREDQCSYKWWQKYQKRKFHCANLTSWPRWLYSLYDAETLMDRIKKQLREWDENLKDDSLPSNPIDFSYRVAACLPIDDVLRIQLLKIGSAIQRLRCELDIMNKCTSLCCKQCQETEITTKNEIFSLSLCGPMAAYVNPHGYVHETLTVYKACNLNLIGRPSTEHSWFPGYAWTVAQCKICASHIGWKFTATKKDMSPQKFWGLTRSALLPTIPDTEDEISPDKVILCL

CC(C)C[C@H](NC(=O)[C@H](Cc1ccccc1)NC(=O)c1cnccn1)B(O)O [bortezomib]
IKZF3 expression in presence of bortezomib [1, 9]: upregulation of IKZF3 | Pom-induced GZM-B expression in presence of bortezomib [2, 9]: downregulated Pom-induced GZM-B expression in a dose-dependent fashion

Nc1cccc2c1CN(C1CCC(=O)NC1=O)C2=O (stereo not drawn) [lenalidomide]
phosphorylation of LAT (immunoblotting) [3]: similarly triggered p-Zap-70 and p-LAT in PBMCs | phosphorylation of Zap-70 (immunoblotting) [3]: similarly triggered p-Zap-70 and p-LAT in PBMCs | p-Zap-70 (Tyr319) by ELISA [4]: increased p-Zap-70 (Tyr319) in a dose-dependent fashion | direct binding to Zap-70 (STD NMR) [5]: similarly binds to Zap-70

O=C1CC[C@H](N2Cc3c(OCc4ccc(CN5CCOCC5)cc4)cccc3C2=O)C(=O)N1 [CC-220, iberdomide]
p-Zap-70 (immunoblotting) [6]: induced p-Zap-70 in a dose-dependent fashion | IKZF3 expression ([1]; 0.01-1 μM, 24 h): downregulation of IKZF3 | binding affinity to CRBN relative to lenalidomide or pomalidomide [7]: enhanced binding affinity to CRBN relative to lenalidomide or pomalidomide | NK cell activity against U266 cells (percent specific lysis) [8]: enhanced NK cell activity | potency in triggering GZM-B, compared among lenalidomide, pomalidomide and CC-220 ([2]; 0.01-1 μM, 24 h, immunoblotting and real-time qPCR): more potently upregulated GZM-B than lenalidomide or pomalidomide

Nc1ncnc2c1ncn2[C@@H]1O[C@H](COP(=O)(O)OP(=O)(O)OP(=O)(O)O)[C@@H](O)[C@H]1O [ATP]
direct binding to Zap-70 (STD NMR) [5]: both ATP and lenalidomide bind to Zap-70
